We go through one compound from patent US20220339209A1, “ISOLATION, IDENTIFICATION AND APPLICATION OF STREPTOCOCCUS SP. 121” (priority 2021, published 2022).

The subject of one assay is Shigella dysenteriae. Description: Filtering paper agar diffusion bacteriostatic test against Shigella dysenteriae. It counts as cell-based. Conditions: 50 μL on 0.6 cm filter paper, extract 1 mg/10 μL, positive control 1 mg/mL, MH plate, 37° C., 16-20 h. (In general: A growth-free zone around the sample is the usual read-out of agar diffusion tests.)
A further assay has as its system Klebsiella pneumoniae. Description: Filtering paper agar diffusion bacteriostatic test against Klebsiella pneumoniae. The settings on record: 50 μL on 0.6 cm filter paper, extract 1 mg/10 μL, positive control 1 mg/mL, MH plate, 37° C., 16-20 h.

For `NC[C@H]1O[C@H](O[C@H]2[C@H](O)[C@@H](O[C@H]3O[C@H](CO)[C@@H](O)[C@H](N)[C@H]3O)[C@H](N)C[C@@H]2N)[C@H](O)[C@@H](O)[C@@H]1O` [Kanamycin, kanamycin], the “size of bacteriostatic ring, mean” value in the assay on Shigella dysenteriae (mean of 3 measurements) came to 23.7 mm; with Klebsiella pneumoniae (mean of 3 measurements), 19.7 mm. For the same compound, the “size of bacteriostatic ring” value in the assay on Shigella dysenteriae (the first time) was 24 mm; with Shigella dysenteriae (the second time) it was 24 mm; in the assay on Shigella dysenteriae (the third time), 23 mm; in the assay with Klebsiella pneumoniae (the first time), 20 mm; in the assay with Klebsiella pneumoniae (the second time), 18 mm; in the assay with Klebsiella pneumoniae (the third time), 21 mm.
